{"source": "patent EP0415776A2", "about": "“Indolobenzoquinoline derivatives, their preparation and their use as anti-arrhythmic drugs” (Sankyo Company Limited, priority 1989, dated 1991)", "system": "arrhythmias caused by myocardial ischemia in dogs", "assay": "arrhythmias caused by myocardial ischemia in dogs (glass bead injected into left coronary artery)", "assay_type": "in vivo, Male Beagles", "procedure": "Male Beagles weighing 8 - 12 kg were anesthetized with sodium pentobarbital (30 mg/kg i.v.). The animal was placed in a supine position, and the left carotid artery was isolated from the surrounding tissue. A metal cannula was then introduced from the left carotid artery and its tip was placed at the coronary orifice. A glass bead having a diameter of 1.7 mm was injected through the metal cannula into the left coronary artery. The glass bead injection produced a ST segment elevation, which was followed by ventricular arrhythmias due to myocardial infarction.\nThe dog was used in a conscious state for 24 hours after myocardial ischemia developed, when the arrythmic ratio exceeded 70%. The arrhythmic ratio was calculated by dividing the number of arrhythmias by the total heart beats in one minute.\nFigures 1 and 2 of the accompanying drawings show the course of the arrhythmias with time following a single intravenous administration of the compound of Example 1 and its racemate, respectively.", "note": "Where a name gives a salt, the structure may show the parent alone.", "data": [{"compound": "N[C@@H]1Cc2c3n(c4cccc(O)c24)C(=O)C[C@H]2CCC[C@@H]1[C@@H]32", "note": "[Example 1, (3aR,4R,12aR,12bS) 4-Amino-2,3,3a,4,5,12,12a,12b-octahydro-6-hydroxyindolo[3,2,1,-ij]benz[de]quinolin-11-(1 H)-one hydrochloride sesquihydrate]", "values": [{"measurement": "suppressing arrhythmias, compared with racemate", "setting": "Example 1 at 2.5 mg/kg i.v. versus racemate at 5.0 mg/kg i.v.", "value": "almost comparable with its racemate at 5.0 mg/kg i.v."}, {"measurement": "potency in anti-arrhythmic action relative to racemate", "setting": "single i.v. administration, dogs, inferred from 2.5 mg/kg vs 5.0 mg/kg", "value": "about twice"}, {"measurement": "number of arrhythmias per minute", "setting": "single intravenous administration, conscious dog 24 hours after myocardial ischemia developed, course with time, Figures 1 and 2", "value": "decreased the number of arrhythmias per minute"}]}]}
